According to patent US10913757B2, “Hydroxycinnamic derivatives, methods and uses thereof” (UNIVERSIDADE DO PORTO, priority 2016, dated 2021):
Marks after values point to notes of the source that are not given here.

Key:
[1] = ABTS radical cation scavenging activity (TAC assay); format: biochemical; details: ethanol
Text: (§1) In an embodiment, the AntiOxCINs antioxidant ranking activity hierarchy was established by in vitro non-cell methods. The selected total antioxidant capacity (TAC) assays (DPPH, ABTS and GO) involved the spectrophotometric measurement of the radical absorbance decrease as a result of an in situ radical deactivation by an antioxidant. Compounds with higher antioxidant activity display lower IC50 values. […] This decrease was attenuated/ameliorated by the increment of the spacer length and/or the introduction of additional hydroxyl group in the aromatic ring.
(§2) The radical scavenging activity of AntiOxCINs was evaluated by means of total antioxidant capacity assays based on DPPH., ABTS.^+ and GO. radicals. All these methods involved the spectrophotometric measurement of the absorbance decrease resulting from radical (DPPH., ABTS.^+ or GO.) deactivation with an antioxidant. The results were expressed in IC50, which is defined as the minimum antioxidant concentration necessary to reduce the amount of radical by 50%. Antioxidant assays were performed in a multiplate reader (Powerwave XS Microplate Reader) of Bio-Tech instruments.
In an embodiment, the ABTS.^+ scavenging activity was evaluated as follows: ethanolic solutions of the test compounds with increasing concentrations (range between 10 μM and 500 μM) were prepared. ABTS.^+ radical cation solution was obtained by addition of 150 mM aqueous potassium persulfate solution (163 μL) to 10 mL of 7 mM aqueous ABTS solution followed by storage in the dark at room temperature for 16 h (2.45 mM final concentration). The solution was then diluted in ethanol to reach the absorbance of 0.72±0.02. After addition of the compound (20 μL), in triplicate, to ABTS.^+ solution (180 μL) the spectrophotometric measurement was carried out each minute over 15 minutes. […] Dose-response curves were established for the determination of IC50 values. Data are means±SEM of three independent experiments.

[2] = GO radical scavenging activity (TAC assay); format: biochemical; details: ethanol, absorbance 428 nm
Text: as §1, §2
In an embodiment, the GO′ scavenging activity was evaluated as follows: solutions of test compounds with concentrations from 5 μM to 75 μM were prepared in ethanol. An ethanolic solution of 5 mM GO′ was prepared and diluted to reach the absorbance of 1.00±0.02 at 428 nm. The addition (20 μL) in triplicate of compound solution to GO. solution (180 μL) was followed by absorbance measurement at 428 nm over 30 minutes, in the dark, at room temperature. […] Dose-response curves were established for the determination of IC50 values. Data are means±SEM of three independent experiments.

[3] = Lipophilic properties by electrochemistry at ITIES (transfer potential); format: physicochemical; details: aqueous phase to 1,6-dichlorohexane, DPV, C=0.32 mM
Description: In an embodiment, AntiOxCINs lipophilic properties were evaluated at physiological pH by electrochemistry. The used technique is often used to mimic the transfer of ionic drugs through biological membranes as the process occurs at the interface between two immiscible electrolyte solutions (ITIES). The transfer potential (Etr) at which the ionic drug, initially present in the aqueous phase (C=0.32 mM), is transferred to the 1,6-dichlorohexane (DCH) phase is measured by differential pulse voltammetry (DPV). In the ITIES model, the transfer potential (Etr) becomes less positive with the increasing of the drug lipophilic character.
(§3) In an embodiment, the electrochemical analytical data was obtained using a computer controlled potentiostat Autolab PGSTAT302N (Metrohm Autolab, Utrecht, Netherlands). Generally, cyclic voltammetry (CV) data was acquired at a scan rate of 50 mVs^−1. Differential pulse voltammetry (DPV) results were acquired at a step potential of 4 mV, pulse amplitude of 50 mV and scan rate of 8 mVs^−1. The electrochemical signals were monitored by the General Purpose Electrochemical System (GPES) version 4.9, software package. All electrochemical experiments were performed at room temperature in an electrochemical cell that was placed in a Faraday cage in order to minimize the contribution of background noise to the analytical signal.
(§4) In an embodiment, the process of evaluation of AntiOxCINs redox properties was conducted as follows: stock solutions of each compound (10 mM) were prepared by dissolving the appropriate amount in ethanol. The voltammetric working solutions were prepared in the electrochemical cell, at a final concentration of 0.1 mM. The […] supporting electrolyte was prepared by diluting […] to 100 mL. Voltammetric data was acquired in a three-electrode system consisting of a glassy carbon electrode (GCE, d=2 mm) as working electrode, a counter electrode of platinum wire and a saturated Ag/AgCl reference electrode. In an embodiment, the evaluation of AntiOxCINs lipophilic properties was performed as follows: the electrochemical cell was a four-electrode system with arrays of micro liquid-liquid interfaces (μlTIES) containing two Ag/AgCl reference electrodes and two counter electrodes of Pt, one in each phase. The microporous membrane was sealed with a fluorosilicone sealant (Dow Corning 730) onto a glass cylinder which was filled with 4.0 mL of the aqueous phase, where the aliquots of AntiOxCINs solutions were added. The membrane was then immersed into the organic phase contained in the cell. The organic phase reference solution (a 2 mM BTPPACI+2 mM NaCl aqueous solution) was mechanically stabilized The aqueous supporting electrolyte solution was a Tris-HCl buffer 10 mM pH 7.0.

[4] = DPPH radical scavenging activity (TAC assay); format: biochemical; details: ethanol, absorbance 515 nm
Text: as §1, §2
In an embodiment, the DPPH. radical scavenging activity was performed as follows: solutions of the test compounds with increasing concentrations (range between 0 μM and 500 μM) were prepared in ethanol. A DPPH′ ethanolic solution (6.85 mM) was also prepared and then diluted to reach the absorbance of 0.72±0.02 at 515 nm. Each compound solution (20 μL) was added to 180 μL of DPPH′ solution in triplicate, and the absorbance at 515 nm was recorded minutely over 45 minutes. […] Dose-response curves were established for the determination of IC50 values. Data are means±SEM of three independent experiments.

[5] = tested on: mouse myoblast C2C12 cells; details: cited from earlier work
[6] = Redox properties by differential pulse and cyclic voltammetry; format: physicochemical
Description: In an embodiment, and as an example, AntiOxCINs redox properties were evaluated (Table 1). Redox potentials are correlated with the ability of an antioxidant to donate a hydrogen atom and/or an electron to a free radical.
However, for pyrogallol derivatives (AntiOxCIN4, AntiOxCIN5 and AntiOxCIN7), a significant decrease in redox potentials was observed (Ep=0.034-0.057 V) (Table 1).
The voltammograms presented a diffusion peak and an adsorption post-peak at a more anodic potential correspondent to the oxidation of dissolved and adsorbed forms of the compounds, respectively. The oxidation waves can be related to the oxidation process of the pyrogallol moiety. The cyclic voltammograms also show the presence of two overlapped anodic peaks. The anodic peaks appeared to correspond to irreversible processes as any distinct reduction wave was not seen on the cathodic sweep. The existence of the additional phenolic group in the pyrogallol systems, when compared with the catechol ones, seems to influence the stabilization of the semiquinone intermediate and in turn the oxidative mechanism.
as §3, §4

In the case of CS(=O)(=O)[O-].O=C(/C=C/c1ccc(O)c(O)c1)NCC[P+](c1ccccc1)(c1ccccc1)c1ccccc1 [AntiOxCIN1, reference compound], the IC50 [1] is reported as 33.3 µM, the IC50 [2] is reported as 4.5 µM and the “Etr (transfer potential)” value [3] is reported as 0.572 V. The IC50 [4] was 35.4 µM, the “protection against oxidative stress stressors (H2O2, linoleic acid-hydroperoxides)” value [5] was “protected” and the “reversibility of the oxidation reaction” value ([6]; cyclic voltammetry, physiological pH) was “reversible reaction”. For the same compound, the “Ep (redox potential)” value ([6]; physiological pH (7.4), voltammetry, listed as AntiOxClN1) was 0.166^a) V.
